Patent US11613545B2, “Macrocyclic compound serving as Wee1 inhibitor and applications thereof” (WUXI BIOCITY BIOPHARMACEUTICS CO., LTD., priority 2017, dated 2023)

Tests used:
[1] = system: human pancreatic cancer BxPC-3 subcutaneously transplanted tumor; test: In vivo pharmacodynamic study, BxPC-3 subcutaneously transplanted tumor model; parameters: species or system BALB/c nude mice; settings: BxPC-3 xenograft, 25 mg/kg once a day, after administration for 27 days
Description: (2) In vivo pharmacodynamic study of the compound on human pancreatic cancer BxPC-3 BALB/c nude mouse subcutaneously transplanted tumor model
Experimental method: The selected experimental animal was BALB/c nude nude mice, 6-8 weeks old, weighing 18-22 grams.
The 10th generation of BxPC-3 cells were cultured in monolayer in vitro. The culture conditions were RPMI 1640 medium (manufacturer: gibco, article number: 22400-089) containing 10% fetal bovine serum, 100 U/mL penicillin and 100 μg/mL streptomycin, 37° C. 5% CO2 culture, passage was performed for 4 times. The passaging method was conventional digestion treatment with trypsin-EDTA twice a week. When the cell saturation reached 80%-90%, the cells were digested with trypsin-EDTA, counted, and resuspended in PBS at a density of 5×10^7 cells/mL. Each animal was inoculated with 0.1 mL (5×10^6) BxPC-3 cells in the right back. When the average tumor volume reached 153 mm^3, they were randomly divided into groups according to the tumor volume and the drug administration was started. Dosage: 25 mg/kg, once a day.
The experimental index is to investigate whether the tumor growth is inhibited, delayed or cured. The diameter of the tumor was measured with vernier calipers twice a week. The antitumor efficacy of the compound was evaluated by TGI (%) or relative tumor proliferation rate T/C (%). TGI (%) reflects the tumor growth inhibition rate. […]

[2] = system: CT26 mouse colon cancer transplanted tumor; test: In vivo anti-tumor efficacy, CT26 colon cancer transplanted tumor model; parameters: species or system BALB/c nude mice; settings: 30 mg/kg twice daily, after administration for 18 days
Description: (3) In vivo anti-tumor efficacy of the compounds on CT26 mouse colon cancer animal transplanted tumor model
Experimental method: The selected experimental animal was BALB/c nude mice, 7 weeks old, weighing 16-20 grams, female.
Cells: Mouse colon cancer CT26 cells (the Cell Bank of Typical Culture Preservation Committee of the Chinese Academy of Sciences) were cultured in monolayer in vitro. The culture conditions were RPMI-1640 medium containing 10% fetal bovine serum and 37° C. 5% CO2 incubator. Conventional digestion treatment with trypsin-EDTA was performed twice a week for passaging. When the cells were in the exponential growth phase and the saturation was 80%-90%, the cells were collected, counted, and inoculated. 0.1 mL DPBS (containing 3×10^5 CT26 cells) was subcutaneously inoculated into the right back of each mouse. When the average tumor volume reached 50-70 mm^3, randomized administration was performed according to tumor volume. Dosage: 30 mg/kg twice daily.
The experimental index is to investigate whether the tumor growth is inhibited, delayed or cured. The diameter of the tumor was measured with vernier calipers twice a week. The antitumor efficacy of the compound was evaluated by TGI (%) or relative tumor proliferation rate T/C (%). TGI (%) reflects the tumor growth inhibition rate.
After the final administration for 18 days, the experimental results are as follows: […]

[3] = Pharmacokinetic evaluation in plasma after single intravenous and single oral administration; format: in vivo; settings: mouse, female Balb/c Nude mice
Description: Twelve mice (provided by Lingchang Biotech) were randomly divided into two groups, 6 females in each group, and samples were collected by cross blood collection. […] In the intravenous group, plasma samples were collected at 9 time points of 5 minutes, 15 minutes, 30 minutes, 1 hour, 2 hours, 4 hours, 6 hours, 8 hours, and 24 hours after administration; in the oral group, plasma samples were collected at 8 time points of 15 minutes, 30 minutes, 1 hour, 2 hours, 4 hours, 6 hours, 8 hours, and 24 hours after administration.

[4] = target: T1, Wee1 (Homo sapiens, UniProt P30291); test: In vitro enzymatic inhibitory activity, Wee1 kinase (Eurofins, [γ-33P]-ATP filter assay); format: biochemical; settings: 10 μM [γ-33P]-ATP, 40 min at room temperature
T1 construct: purchased Eurofins
Description: The experimental tests were conducted at Eurofins, and the results were provided by the company.
After adding the mixed solution of Mg^2+ and ATP, the reaction started and the reaction solution was incubated at room temperature for 40 min. 3% phosphate buffer was added to stop the reaction. 10 μL of the reaction solution was filtered on a continuous filter P30, washed three times with 75 mM phosphate buffer, once with methanol, and 5 minutes each time. After drying, the value was read by scintillation counting method.

[5] = system: P-gp (human MDR1); test: In vitro permeability test in MDR1-MDCK II cells (bidirectional transport); format: in vitro ADME, canine; settings: dog; for Papp A→B at 150 min, 2 μM: A to B, read-out: Penetration rate A to B; for Papp B→A at 150 min, 2 μM: B to A, read-out: Penetration rate B to A
From the text: (§1) The study used MDR1-MDCK II cells authorized by Piet Borst laboratory of the Netherlands Cancer Institute, which are a kind of Madin-Darby canine kidney cells transfected with human multi-drug resistance gene (MDR1). The cells can stably express the efflux transporter P glycoprotein (P-gp), so they are suitable for screening P-gp substrates or inhibitors, and predict that the compounds have high efflux barrier permeability such as duodenum, blood-brain barrier, hepatocyte nucleus and renal unit. We used the 5th to 35th generation MDR1-MDCK II cells for permeability study.
(§2) MDR1-MDCK II cells were cultured with α-MEM medium (α-Minimum Essential Media) under the conditions of 37±1° C., 5% CO2 and saturated relative humidity. After that, the cells were inoculated in a BD Transwell-96-well plate with an inoculation density of 2.3×10^5 cells/cm^2, and then the cells were placed in a carbon dioxide incubator for 4-7 days and used for transport experiments. The preparation method of α-MEM medium was as follows: the liquid nutrient base was prepared by dissolving powder (α-MEM powder from Gibco, Cat #: 11900) in pure water, and L-glutamine and NaHCO3 were added. 10% FBS (fetal bovine serum), 1% PS (dual antibiotic) and 1% NEAA were added to make it a complete medium when using.
(§3) Fenoterol and propranolol were tested at a concentration of 2 μM, administered unidirectionally (A-B direction), and duplicated in two wells.
(§4) The solution to be used was pre-incubated in a 37±1° C. water bath for 30 minutes. The dosing solution and the receiving solution were added to the corresponding well positions of the cell plate (75 and 250 μL for each top and bottom well, respectively) to start the bidirectional transport experiment. After loading, the cell plates were placed in an incubator at 37±1° C., 5% CO2 and saturated relative humidity for 150 minutes.
(§5) After vortexing, all samples were centrifuged at 3,220 g for 10 minutes. An appropriate volume of supernatant was transferred to the sample analysis plate, and analyzed by LC/MS/MS. If samples were not analyzed immediately after sealing, they were store at 2-8° C.
(§6) After the transport experiment was completed, the integrity of MDR1-MDCK II cells was tested using Lucifer Yellow Rejection Assay. After incubating the fluorescent yellow solution for 30 minutes, the fluorescent yellow samples were collected, and the relative fluorescence unit (RFU) of the fluorescent yellow in the sample was detected at 425/528 nm (excitation/emission) by the 2e plate reader.
(§7) Semi-quantitative analysis was used for the test products AZD1775 (or the compound of the present invention), the control products fenoterol, propranolol and digoxin. The ratio of the peak area of the analyte to the internal standard was used as the concentration of the reference substance.

[6] = system: P-gp (MDR1); test: as above; format: in vitro ADME, canine; settings: dog
From the text: as §1, §2, §3, §4, §5, §6, §7

[7] = system: human colon cancer LoVo cell subcutaneous xenograft tumor; test: In vivo pharmacodynamic study, LoVo subcutaneous xenograft tumor model; parameters: species or system BALB/c nude mice; settings: 40 mg/kg twice daily, after administration for 16 days
Description: (1) In vivo pharmacodynamic study of the compounds on human colon cancer LoVo cell subcutaneous xenograft tumor BALB/c nude mouse model
Experimental method: The selected experimental animal (provided by Shanghai Xipu'er-bikai Experimental Animal Co., Ltd.) were BALB/c nude mice, 6-8 weeks old, weighing 18-22 grams.
Human colon cancer LoVo cells were cultured in monolayer in vitro. The culture conditions were Ham's F-12 medium containing 10% fetal bovine serum, 100 U/mL penicillin, 100 μg/mL streptomycin and 2 mM glutamine, 37° C., 5% CO2 culture. Conventional digestion treatment with trypsin-EDTA was performed twice a week for passaging. When the cell saturation was 80%-90%, the cells were collected, counted, and inoculated. 0.1 mL (10×10^6) LoVo cells were subcutaneously inoculated into the right back of each nude mouse. When the average tumor volume reached 213 mm^3, they were divided into groups and the drug administration was started. Dosage: 40 mg/kg twice daily. The experimental index is to investigate whether the tumor growth is inhibited, delayed or cured. The diameter of the tumor was measured with vernier calipers twice a week. The calculation formula of tumor volume is: V=0.5a×b^2, a and b represent the long and short diameters of the tumor, respectively.
The antitumor efficacy of the compound was evaluated by TGI (%) or relative tumor proliferation rate T/C (%). […]

T1 sequence (P30291 whole entry): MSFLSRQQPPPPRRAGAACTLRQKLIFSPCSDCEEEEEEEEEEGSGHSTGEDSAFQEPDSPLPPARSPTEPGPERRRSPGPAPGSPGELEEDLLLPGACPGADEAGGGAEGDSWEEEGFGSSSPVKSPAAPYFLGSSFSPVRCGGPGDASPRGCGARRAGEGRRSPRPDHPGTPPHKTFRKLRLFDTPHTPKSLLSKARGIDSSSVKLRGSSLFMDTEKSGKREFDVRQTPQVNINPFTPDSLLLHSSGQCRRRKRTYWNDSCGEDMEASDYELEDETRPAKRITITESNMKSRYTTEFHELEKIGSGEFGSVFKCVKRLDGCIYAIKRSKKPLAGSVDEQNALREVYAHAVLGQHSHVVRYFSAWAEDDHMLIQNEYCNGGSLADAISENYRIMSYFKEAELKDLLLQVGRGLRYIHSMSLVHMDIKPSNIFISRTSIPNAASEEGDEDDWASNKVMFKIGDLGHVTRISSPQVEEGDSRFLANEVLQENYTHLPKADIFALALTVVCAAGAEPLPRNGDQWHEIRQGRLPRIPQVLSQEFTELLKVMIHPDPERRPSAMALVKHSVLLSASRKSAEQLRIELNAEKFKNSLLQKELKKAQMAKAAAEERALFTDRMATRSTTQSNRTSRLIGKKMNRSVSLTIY

Compound	TGI (%) [1]	TGI (%) [2]	clearance ([3]; 1 mg/kg intravenous, 10 mg/kg oral study, read-out: Clearance rate)	AUC ([3]; 1 mg/kg intravenous, 10 mg/kg oral study, read-out: Concentration integral AUC)	half-life ([3]; 1 mg/kg intravenous, 10 mg/kg oral study, read-out: Half-life T1/2 (converted))	bioavailability ([3]; po, 10 mg/kg by gavage vs 1 mg/kg intravenous, read-out: Bioavailability F)	IC50 [4]	Papp A→B at 150 min, 2 μM [5]	Papp B→A at 150 min, 2 μM [5]	efflux ratio at 150 min, 2 μM [6]	TGI (%) [7]
CN1CCN(c2ccc(Nc3ncc4c(=O)n5n(c4n3)-c3cccc(n3)C(C)(O)CC/C=C\C5)cc2)CC1 (single isomer, unassigned) [Compound 1]	73.3%	93.38%	33.5 mL/min/kg	6.04 µM·h	1.69 h	62.4%	29 nM	4.55 ×10⁻⁶ cm/s	17.4 ×10⁻⁶ cm/s	3.82	84.74%
C=CCn1c(=O)c2cnc(Nc3ccc(N4CCN(C)CC4)cc3)nc2n1-c1cccc(C(C)(C)O)n1 [AZD1775, reference compound]	24.3%	66.43%						2.83 ×10⁻⁶ cm/s	29.3 ×10⁻⁶ cm/s		26.73%
